The text below walks through data of US20250352589A1, “OXYTOCIN-MIMETIC COMPOSITIONS AND USES THEREOF” (INSTITUT NATIONAL DE LA SANTÉ ET DE LA RECHERCHE MÉDICALE, priority 2021, published 2025).

The subject of one assay is anti-oxytocin antibodies. In words: Proteomic analysis: 2D gel and OT immunodetection (OT IgG) of bacterial proteomes. Type of assay: binding. On the procedure: In this study, 14 bacteria-extracted proteomes were analyzed: (i) from 5 Bifidobacterium species grown in anaerobe conditions, (ii) from 5 Lactobacillus species grown in anaerobe culture conditions and (iii) from 4 aerotolerant Lactobacillus species grown in aerobe conditions. Each proteome analysis was performed in triplicate and was further separated in 3 fractions i.e. soluble (S), membrane (M), and residual (R) resulting in 9 samples/proteome). Each fraction was initially screened by western blot (WB) for the presence OT-like reactivity to validate it for further 2D-SDS-PAGE analysis. […] Finally, all fractions have been analyzed using 2D gel technique and OT immunodetection. 2D gel electrophoresis allowed to improve visibility of the less abundant proteins in a complex sample. Thereby, all samples were analyzed at least once with this method to scan optimally each proteome in the search for OT mimicry. […] The specificity for OT-like staining was controlled by pre-adsorption of OT-IgG with OT peptide.
All protein spots in silver nitrate staining gels corresponding to OT-like spots in the membrane were excised and analyzed by mass spectrometry

Another assay has as its target T1, human OT-R (Homo sapiens, UniProt P30559).
T1 construct: expressed in transfected cells; host or cells: HEK cells
T1 sequence (P30559 1-389): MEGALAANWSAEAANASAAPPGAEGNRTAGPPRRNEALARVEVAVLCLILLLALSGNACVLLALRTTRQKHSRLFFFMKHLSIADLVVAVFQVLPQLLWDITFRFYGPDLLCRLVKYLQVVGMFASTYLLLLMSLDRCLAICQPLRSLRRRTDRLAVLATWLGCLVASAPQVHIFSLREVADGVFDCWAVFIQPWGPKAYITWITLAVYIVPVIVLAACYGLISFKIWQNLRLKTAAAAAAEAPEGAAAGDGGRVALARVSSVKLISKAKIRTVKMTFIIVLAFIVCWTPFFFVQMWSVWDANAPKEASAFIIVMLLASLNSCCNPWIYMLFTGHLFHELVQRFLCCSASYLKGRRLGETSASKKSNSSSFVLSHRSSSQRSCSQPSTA
In words: Activation of OT-R by bacterial peptides: calcium release from HEK cells transfected with human OT-R. The assay is classed as cell-based. The following applies: for specific activation of OTR: OTR expressing HEK cells; for Emax: mean ± standard error, maximal amplitude of Ca2+ release, HEK cells expressing human OT-R; for activation of the oxytocin receptor: statement in the description, micromolar scale.

The next assay addresses human oxytocin receptor (human, UniProt P30559). In words: cell-based or functional assay.
Setting [1] is: 2D-immunoblotting, spots identified by mass spectrometry.

Read-outs that look alike come from different tables or passages of the source.

“Glucose-6-phosphate isomerase [SEQ ID NO:18]”: the “immune cross-reaction with anti-oxytocin antibodies” value (“immune cross-reaction” for short) in the assay on anti-oxytocin antibodies was “immune cross-react with anti-oxytocin antibodies”.

H-KYIENISDE-OH [Peptide 14]: at human OT-R, the “specific activation of OTR” value is recorded as “specifically activated OTR” and the Emax is 221.5 ± 10.40. The like results for H-LTITNVPNS-OH [Peptide 5] were, in that order, “specifically activated OTR” and 272 ± 99.09. The like results for H-KQFVHENELG-OH [Peptide 7] were, in that order, “specifically activated OTR” and 262.8 ± 35.64. On to H-DYVKNMITG-OH [Peptide 1], for which, on human OT-R, the “specific activation of OTR” value is reported as “specifically activated OTR”, the Emax came to 273.8 ± 35.03 and the “activation of the oxytocin receptor” value is “strongly activate the oxytocin receptor at a micromolar scale”. Also, the “most efficient OT-like peptides” value at human OT-R (judged by EC50 and maximal amplitude of Ca2+ release) is listed as “most efficient”. Elongation factor Tu [SEQ ID NO:17]: in the assay with anti-oxytocin antibodies (setting [1]), the “immune cross-reaction” value was “immune cross-react with anti-oxytocin antibodies”.

Take “H-VDIQEFMIMPVG-OH [Peptide 9, Enolase 2 fragment 160-171; LG]”: the “activation of the oxytocin receptor” value in the assay with human OT-R is reported as “strongly activate the oxytocin receptor at a micromolar scale”. As for Elongation factor Tu [SEQ ID NO:14], the “immune cross-reaction” value in the assay with anti-oxytocin antibodies (setting [1]) is recorded as “immune cross-react with anti-oxytocin antibodies”. For H-ATSKNCPIA-OH [Peptide 4], on human OT-R, the “specific activation of OTR” value is “specifically activated OTR” and the Emax is recorded as 304.6 ± 29.70.

In the case of `CSCC[C@H](NC(=O)[C@@H]1CCCN1C(=O)CNC(=O)[C@H](CC(N)=O)NC(=O)[C@H](Cc1c[nH]c2ccccc12)NC(=O)[C@@H](NC(=O)[C@@H](NC(=O)[C@@H](NC(=O)[C@@H](N)CCCCN)[C@@H](C)O)C(C)C)C(C)C)C(=O)NCC(=O)O` [Peptide 3], at human OT-R, the “specific activation of OTR” value is on record as “specifically activated OTR”, the Emax turned out to be 302 ± 35.41 and the “activation of the oxytocin receptor” value is “strongly activate the oxytocin receptor at a micromolar scale”. Regarding H-SYFYNKEDG-OH [Peptide 10, LG], the “activation of the oxytocin receptor” value with human OT-R is given as “strongly activate the oxytocin receptor at a micromolar scale”. Turning to `CC[C@H](C)[C@H](NC(=O)[C@H](Cc1ccc(O)cc1)NC(=O)[C@@H](N)CC(=O)O)C(=O)N[C@@H](CCCCN)C(=O)N[C@@H](CC(N)=O)C(=O)N[C@@H](CCSC)C(=O)N[C@H](C(=O)N[C@H](C(=O)NCC(=O)O)[C@@H](C)O)[C@@H](C)CC` [Peptide 8], on human OT-R, the “specific activation of OTR” value is “specifically activated OTR”, the Emax is recorded as 140 ± 71.48 and the “activation of the oxytocin receptor” value is reported as “strongly activate the oxytocin receptor at a micromolar scale”. The like results for H-QYIQEGR-OH [Peptide 6, H-QYIQEGR-OH] were, in that order, “specifically activated OTR”, 99.42 ± 6.77 and “strongly activate the oxytocin receptor at a micromolar scale”. For Enolase 2 [SEQ ID NO:8], in the assay with anti-oxytocin antibodies (setting [1]), the “immune cross-reaction” value was “immune cross-react with anti-oxytocin antibodies”. As for H-DFVKNMITG-OH [Peptide 17], the Emax at human OT-R came to 135.3 ± 8.92. Consider H-KFVNDNELG-OH [Peptide 2], for which, on human OT-R, the “specific activation of OTR” value is on record as “specifically activated OTR”, the Emax came to 164.8 ± 107.9 and the “activation of the oxytocin receptor” value is “strongly activate the oxytocin receptor at a micromolar scale”.

B1: OT-like peptide #10, Enolase 246-254, H-SYFYNKEDG-OH (peptide)
peptide: H-SYFYNKEDG-OH
Take B1: the “Emax of calcium release” value with human oxytocin receptor worked out at 41.6.

B2: OT-like peptide #5, Glutamine-fructose-6-phosphate aminotransferase [isomerizing] 371-379, H-LTITNVPNS-OH (peptide)
peptide: H-LTITNVPNS-OH
As to B2, in the assay with human oxytocin receptor, the “EC50 of calcium release” value was 2.7 µM and the “Emax of calcium release” value came to 272.

B3: OT-like peptide #4, GMP synthase [glutamine-hydrolyzing] 154-162, H-ATSKNCPIA-OH (peptide)
peptide: H-ATSKNCPIA-OH
Regarding B3, in the assay with human oxytocin receptor, the “EC50 of calcium release” value stood at 3.09 µM and the “Emax of calcium release” value turned out to be 305.

B4: OT-like peptide #7, Glucose-6-phosphate isomerase 12-21, H-KQFVHENELG-OH (peptide)
peptide: H-KQFVHENELG-OH
As for B4, in the assay with human oxytocin receptor, the “EC50 of calcium release” value was 2.57 µM and the “Emax of calcium release” value is 263.

B5: OT-like peptide #8, Elongation factor Tu 88-96, H-DYIKNMITG-OH (peptide)
peptide: H-DYIKNMITG-OH
Turning to B5, the “Emax of calcium release” value with human oxytocin receptor is 140.

B6: OT-like peptide #12, 2,5-didehydrogluconate reductase 202-210, H-AYSPLGTGK-OH (peptide)
peptide: H-AYSPLGTGK-OH
With B6, the “Emax of calcium release” value with human oxytocin receptor was 5.25.

B7: OT-like peptide #2, Glucose-6-phosphate isomerase 13-21, H-KFVNDNELG-OH (peptide)
peptide: H-KFVNDNELG-OH
For B7, in the assay with human oxytocin receptor, the “EC50 of calcium release” value came out at 3.21 µM and the “Emax of calcium release” value amounted to 165.

B8: OT-like peptide #15, Probable phosphoketolase 40-49, H-IYLRSNPLMK-OH (peptide)
peptide: H-IYLRSNPLMK-OH
Take B8: the “Emax of calcium release” value with human oxytocin receptor is 5.36.

B9: Fructose tagatose bisphosphate aldolase (protein, listed as Lactobacillus camelliae)
chain: MFQAARKGHYAIGAFNTNNLEWTRALLKGAQELNVPILIQTSMGAAKYMGGYKLCKALIELEAESMNITVPVVIHLDHGNFEAAKEAIAAGYNSVMFDGHDLPFDENLEKTKEIVKLAHAKGISVEAEVGSIGGEEDGVIGEGELASVEEAKTLAATGIDFMAAGIGNIHGKYPSNWKGLHFDRLQEIADAVDLPLVLHGGSGIPQDQVEKAISMGIAKLNINTECQLAFAKATREYILANKDQEGKGYDPRKLLAPGTQAITDTFKEISGWMGTRPVKMVPEEIK
modifications: Fructose tagatose bisphosphate aldolase
notes: protein expressed by Lactobacillus camelliae
With B9, in the assay on anti-oxytocin antibodies (setting [1]), the “immune cross-reaction” value is “immune cross-react with anti-oxytocin antibodies”.

B10: OT-like peptide #13, Triosephosphate isomerase 61-68, H-CYFEDAGA-OH (peptide)
peptide: H-CYFEDAGA-OH
For B10, the “Emax of calcium release” value with human oxytocin receptor was determined as 17.9.

B11: OT-like peptide #11, Fructose tagatose bisphosphate aldolase 1-8, H-MFQAARKG-OH (peptide)
peptide: H-MFQAARKG-OH
As to B11, the “Emax of calcium release” value with human oxytocin receptor is 4.65.

B12: OT-like peptide #17, Elongation factor Tu 89-97, H-DFVKNMITG-OH (peptide)
peptide: H-DFVKNMITG-OH
B12: in the assay with human oxytocin receptor, the “EC50 of calcium release” value was determined as 7.52 µM and the “Emax of calcium release” value is 135.

B13: OT-like peptide #16, Elongation factor Tu 164-172, H-GFDRDCPVV-OH (peptide)
peptide: H-GFDRDCPVV-OH
Turning to B13, the “Emax of calcium release” value with human oxytocin receptor turned out to be 2.13.

B14: OT-like peptide #9, Enolase 2 160-171, H-[…]-OH (peptide)
peptide: H-VDIQEFMIMPVG-OH
Consider B14, for which, in the assay with human oxytocin receptor, the “Emax of calcium release” value was determined as 119.

B15: OT-like peptide #6, Glucose-6-phosphate isomerase 313-319, H-QYIQEGR-OH (peptide)
peptide: H-QYIQEGR-OH
B15: in the assay with human oxytocin receptor, the “EC50 of calcium release” value is 3.79 µM and the “Emax of calcium release” value came to 99.4.

B16: OT-like peptide #14, 2,3-bisphosphoglycerate-dependent phosphoglycerate mutase 191-199, H-KYIENISDE-OH (peptide)
peptide: H-KYIENISDE-OH
B16: in the assay with human oxytocin receptor, the “EC50 of calcium release” value is 8.93 µM and the “Emax of calcium release” value came to 222.

B17: OT-like peptide #3, Phosphoglycerate kinase 317-326, H-KTVVWNGPMG-OH (peptide)
peptide: H-KTVVWNGPMG-OH
On to B17, for which, in the assay with human oxytocin receptor, the “Emax of calcium release” value worked out at 302.

B18: OT-like peptide #1, Elongation factor Tu 87-95, H-DYVKNMITG-OH (peptide)
peptide: H-DYVKNMITG-OH
Take B18: in the assay with human oxytocin receptor, the “EC50 of calcium release” value came to 2.77 µM and the “Emax of calcium release” value was determined as 274.
